Measured values as given in patent US5536717A, “7-[4-(substituted amino)-2-butynl]benzo[B]pyrrolo[3,2,1-JK]-[1,4]benzodiazepin-6-ones” (Hoechst Marion Roussel Inc., priority 1993, dated 1996).

Key:
serotonergic system = experiment: L-5-hydroxytryptophan potentiation in rats; format: in vivo; settings: male Wistar rats, i.p.; for ED50: Rattus norvegicus, ip, forelimb clonus after pargyline + 5-HTP; for % Potentiation: @ 20 mg/kg, normalized relative to vehicle control
Description: According to the monoamine hypothesis of depression, compounds exert antidepressant activity because they are capable of enhancing central noradrenergic and/or serotonergic function (Shtee and […] 1971; Douglas 1975; Lingjaerde 1973). This procedure is used to evaluate enhanced activity of the serotonergic system. Groups of six male Wistar rats (150-200 g) are used in this test procedure. […] Thirty minutes before the 5-HTP administration, drugs are prepared and dosed using distilled water and, if insoluble, a suitable surfactant is added. Control groups receive vehicle. Drugs are routinely administered i.p. at a dosage volume of 10 ml/kg. L-5-hydroxytrpytophan (Calbiochem-Behring Corp.) is prepared at 1.0 mg/kg in distilled water and is administered i.p. in volumes proportional to 10 ml/kg. Fifteen minutes post-5-HTP treatment, each animal is observed for 10 seconds. Animal observations and 5-HTP administration are done in the presence of "white noise". In a dose range, drugs are administered in a randomized manner. […] Potentiation is expressed as normalized percent potentiation relative to vehicle control. […] An ED50 and 95% confidence limit are determined by Litchfield and Wilcoxon.

mice = experiment: 2-phenyl-1,4-benzoquinone-induced writhing test in mice; format: in vivo; settings: phenylquinone writhing
Excerpt: The compounds of Formula I of the present invention are also useful as analgesic agents due to their ability to alleviate pain in mammals.

## CN(C)CCC=C1c2ccccc2CCc2ccccc21 [Amitriptyline, reference compound]
Serotonergic system
  ED50: 7.1 mg/kg

## CC1CCN(CC#CCN2C(=O)c3cccc4c3N(CC4)c3ccccc32)CC1 [1,2-Dihydro-7-[4-(4-methyl-1-piperidinyl)-2-butynyl]benzo[b]pyrrolo[3,2,1-jk][1,4]benzodiazepin-6-one hemifumarate]
Serotonergic system
  ED50: 25.3 mg/kg

## CN1CCN(CC#CCN2C(=O)c3cccc4c3N(CC4)c3ccc(Br)cc32)CC1.O=C(O)/C=C/C(=O)O [9-Bromo-1,2-dihydro-7-[4-(4-methyl-1-piperazinyl)-2-butynyl]benzo[b]pyrrolo[3,2,1-jk][1,4]benzodiazepin-6-one fumarate]
Serotonergic system
  % Potentiation: 50%

## CN1CCN(CC#CCN2C(=O)c3cccc4c3N(CC4)c3ccccc32)CC1.O=C(O)/C=C/C(=O)O [1,2-Dihydro-7-[4-(4-methyl-1-piperazinyl)-2-butynyl]benzo[b]pyrrolo[3,2,1-jk][1,4]benzodiazepin-6-one fumarate]
mice
  Inhibition at 20 mg/kg, s.c.: 44%

## COc1ccccc1N1CCN(CC#CCN2C(=O)c3cccc4c3N(CC4)c3ccc(Br)cc32)CC1 [9-Bromo-1,2-dihydro-7-[4-[4-(2-methoxyphenyl)-1-piperazinyl]-2-butynyl]-2-butynyl]benzo[b]pyrrolo[3,2,1-jk][1,4]benzodiazepin-6-one]
Serotonergic system
  % Potentiation: 50%

## O=C1c2cccc3c2N(CC3)c2ccc(Br)cc2N1CC#CCN1CCC(n2c(=O)[nH]c3ccccc32)CC1 [9-Bromo-1,2-dihydro-7-[4-[4-(2-oxo-1H-benzimidazol-3-yl)-1-piperidinyl-2-butynyl]benzo[b]pyrrolo[3,2,1-jk][1,4]benzodiazepin-6-one monohydrate]
mice
  Inhibition at 20 mg/kg, s.c.: 42%

## CC1CCN(CC#CCN2C(=O)c3cccc4c3N(CC4)c3ccc(Br)cc32)CC1 [9-Bromo-1,2-dihydro-7-[4-(4-methyl-1-piperidinyl)-2-butynyl]benzo[b]pyrrolo[3,2,1-jk][1,4]benzodiazepin-6-one hemifumarate]
mice
  Inhibition at 20 mg/kg, s.c.: 41%

## CCC(=O)O[C@](Cc1ccccc1)(c1ccccc1)[C@H](C)CN(C)C [Propoxyphene, reference compound]
mice; Mus musculus, sc, read-out: ED50 (writhing inhibition)
  ED50: 3.9 mg/kg
